# Patent US10639382B2, “Method for treating leukemia” (National Guard Health Affairs, priority 2017, dated 2020)
# Structures can show the parent of a compound that is named as a salt. Where two headings read alike, the source gives them in different places.
# Experiments:
# PBMCs from CML patients = experiment: Primary screening of FDA approved drug library, TitreGlo/CellTiter-Glo cell viability, PBMCs from CML patients; assay type: cell-based, human; settings: for inhibition at 10 µM: Homo sapiens, PBMC, read-out: % Inhibition, CML Average
# Protocol: (§1) Whole blood was taken from experimental group patients and control group patients. The collected blood was transferred to EDTA tubes with a 5 mL pipette and a pipette aid and then to each EDTA tubes corresponding 50 ml centrifuge tubes. All the blood from one patient was placed into 1 tube (50 mL) and an equal volume of PBS was added to the 50 mL centrifuge tube. The sample was then mixed by either inverting the tube or pipetting up & down. The blood was transferred into tow 50 mL leucosep tube and centrifuged at room temperature (18-20° C.) for 15 minutes at 800×g with the brake turned off and acceleration at 2/deceleration at zero. After centrifugation, the white cell interface (buffy coat) was removed by pasture pipette and transferred to the new appropriately labelled 50 ml centrifuge tube. 25 mL PBS was added to the white cell interface (buffy coat) and the mix was centrifuged for 10 minutes at room temperature at 400×g with the brake off and acceleration at 4 & deceleration at 2. The supernatant was discarded from the pellet carefully in an appropriate manner. The pellet was washed another time with 20 mL by centrifugation for 5 minutes as above. The pellet was re-suspended in 5 mL and cells were counted using V-Cell. The cells were then either used directly as fresh for screening or frozen in liquid nitrogen in 10% DMSO/RPMPI media until use.
# (§2) The assay used for TitreGlo (Promega) to measure cell viability based on the ATP production. […] The assay was developed in a 384-well plate with 2500 cell/well in 50 uL total volume. Alternatively, the assay could be developed in a 96-well plate with 10,000 cells/well. […] Z′ as a statistics factor was calculated as follows:
# (§3) Each compound from the ENZO FDA SCREEN-WELL® FDA approved drug library V2 (0.10 μl in 100% DMSO) was transferred to white, 384-well, PS, Cellstar plates (Greiner Bio-One) using the Echo® Liquid Handler (Labcyte Inc.). Each plate contained one column for the High/Low Controls. The Low Control (1% DMSO v/v in column 23, no cells) and the High Control (final 1% DMSO v/v in column 24, with cells) were employed to calculate the Z′ for each assay plate. […] At 24 h post seeding, baseline growth was assessed using a control plate and CellTiter-Glo (CTG) reagent (Promega Corporation). Briefly, 20 μL/well of CTG detection mix was added and plates were read using an EnVision Multimode plate reader (PerkinElmer) after 10 min incubation in the dark. The raw luminescence signal was normalized in ActivityBase XE with outliers in control wells eliminated according to the 3-sigma method to yield percentage of cell viability by using the High Control (HC) containing cells in 1% DMSO v/v (Carl Roth) and the Low Control containing 1% DMSO v/v (Carl Roth). All Medium-Throughput Screening experiments were performed in duplicate for each patient. […] The raw luminescence signal was processed using Graph Pad Prism (Graph Pad Software Inc.) with outliers in control wells eliminated according to the 3-sigma method. The dose-response curves were analyzed using a 4 parameter sigmoidal fit to obtain plausible results in the case non-sigmoidal dose-response curves.
# (§4) Each average patient samples were plotted against average of the control samples to identify the positive hits.
# Samples from 4 patients were screened against the FDA approved drug library where the Negative Control (High control) contained cells treated with DMSO and the Positive Control (Low control) were based using no cells. The screening was carried out in 96 well plates. The raw luminescence counts were normalized and the % Inhibition was calculated relative to the high control (0% Inhibition) and the low control (100% Inhibition).
# PBMCs from CLL patients = experiment: Primary screening of FDA approved drug library, TitreGlo/CellTiter-Glo cell viability, PBMCs from CLL patients; assay type: cell-based, human; settings: for inhibition at 10 µM: Homo sapiens, PBMC, read-out: % Inhibition, CLL Average
# Protocol: as §1, §2, §3
# (§5) The Screen-Well FDA approved drug library was screened, which contains 780 approved drugs. […] The final DMSO concentration in the assay plate was 0.1% of total volume. […] The average of all four control samples was then calculated and used to determine the positive “hits” in patients' samples.
# as §4
# PBMC from CML patients = experiment: Confirmation of positive hits, dose-response TiterGlo growth inhibition, PBMC from CML patients versus healthy controls; assay type: cell-based, human; settings: freshly prepared stock from solid, 24 hr incubation
# Protocol: FIG. 2A depicts data of isoproterenol inducing cell death preferentially in chronic myelogenous leukemia (CML) patients' primary PBMC as compared to PBMC from healthy individuals (Control, CTL) when incubated with different concentrations of isoproterenol prepared from liquid stock. FIG. 2B depicts data of isoproterenol inducing cell death preferentially in chronic myelogenous leukemia (CML) patients' primary PBMC as compared to PBMC from healthy individuals (Control, CTL) when incubated with different concentrations of isoproterenol prepared from a solid.
# PBMC from CLL patients = experiment: Confirmation of positive hits, dose-response TiterGlo growth inhibition, PBMC from CLL patients versus healthy controls
# Protocol: as §3
# Compound plates were prepared from the same stock used in the original screening and each compound was tested at 16 concentration point with 100 uM being the highest concentration and the dilution factor was ⅓ between two points.
# The TitreGlo was performed as described and the curve for growth inhibition was plotted using activity base to calculate the EC50.
# PBMCs from ALL patients = experiment: Primary screening of FDA approved drug library, TitreGlo/CellTiter-Glo cell viability, PBMCs from ALL patients; assay type: cell-based, human; settings: for inhibition at 10 µM: Homo sapiens, PBMC, read-out: % Inhibition, ALL Average
# Protocol: as §1, §2, §3, §5, §4
# PBMCs from AML patients = experiment: Primary screening of FDA approved drug library, TitreGlo/CellTiter-Glo cell viability, PBMCs from AML patients; assay type: cell-based, human; settings: for inhibition at 10 µM: Homo sapiens, PBMC, read-out: % Inhibition, AML Average
# Protocol: as §1, §2, §3, §5, §4
# [1] = compound 10 uM, PBMCs from CML patients, average over patients, relative to high control (0%) and no-cell low control (100%)
# [2] = compound 10 uM, PBMCs from CLL patients, average over patients, relative to high control (0%) and no-cell low control (100%)
# [3] = compound 10 uM, PBMCs from ALL patients, average over patients, relative to high control (0%) and no-cell low control (100%)
# [4] = compound 10 uM, PBMCs from AML patients, average over patients, relative to high control (0%) and no-cell low control (100%)
Compound,inhibition at 10 µM (PBMCs from CML patients; [1]) [%],inhibition at 10 µM (PBMCs from CLL patients; [2]) [%],inhibition at 10 µM (PBMCs from ALL patients; [3]) [%],inhibition at 10 µM (PBMCs from AML patients; [4]) [%],other results
CC(C)NCC(O)c1ccc(O)c(O)c1 (racemic) [(±) Isoproterenol HCl],65.3,39.9,61.7,–,"EC50 of growth inhibition, times higher in control PBMC compared to PBMC from CML patients (PBMC from CML patients): 4.4 times; EC50 of growth inhibition, times higher in control PBMC compared to PBMC from CLL patients (PBMC from CLL patients; freshly prepared stock from solid, 24 hr incubation, TiterGlo): 4.8 times"
CC(CCc1ccc(O)cc1)NCCc1ccc(O)c(O)c1 (stereo not drawn) [Dobutamine HCl],25.3,-5,79.6,-10.5,–
COc1cccc2c1C(=O)c1c(O)c3c(c(O)c1C2=O)C[C@@](O)(C(=O)CO)C[C@@H]3O[C@H]1C[C@H](N)[C@H](O)[C@H](C)O1 [Doxorubicin HCl],36.7,67.2,72.6,73.6,–
COc1cccc2c1C(=O)c1c(O)c3c(c(O)c1C2=O)C[C@@](O)(C(=O)CO)C[C@@H]3O[C@H]1C[C@H](N)[C@@H](O)[C@H](C)O1 [Epirubicin HCl],5,64.3,74.4,67.1,–
NC(N)=Nc1nc(CSCCC(N)=NS(N)(=O)=O)cs1 [Famotidine],17.1,39.2,13.4,5.3,–
CCCCCCCCc1ccc(CCC(N)(CO)CO)cc1 [Fingolimod],76.1,47.9,58.9,81.5,–
O=C(NCC1CCCCN1)c1cc(OCC(F)(F)F)ccc1OCC(F)(F)F (stereo not drawn) [Flecainide Acetate],-1,50.2,-18.3,13,–
Nc1nc(F)nc2c1ncn2[C@@H]1O[C@H](COP(=O)(O)O)[C@@H](O)[C@@H]1O [Fludarabine Phosphate],19.1,17.3,53.9,21.8,–
NS(=O)(=O)c1cc(C(=O)O)c(NCc2ccco2)cc1Cl [Furosemide],-38.4,50.3,-31.3,-39,–
Oc1c(Cl)cc(Cl)c(Cl)c1Cc1c(O)c(Cl)cc(Cl)c1Cl [Hexachlorophene],–,–,–,–,inhibition at 10 µM (PBMCs from CML patients): 26.3%; inhibition at 10 µM (PBMCs from CLL patients): -13.5%; inhibition at 10 µM (PBMCs from AML patients): 35%; inhibition at 10 µM (PBMCs from ALL patients): 23%
CC(=O)[C@]1(O)Cc2c(O)c3c(c(O)c2[C@@H](O[C@H]2C[C@H](N)[C@H](O)[C@H](C)O2)C1)C(=O)c1ccccc1C3=O [Idarubicin HCl],43.5,54.8,73.5,79,–
CNC[C@H](O)c1ccc(O)c(O)c1.O=C(O)C(O)C(O)C(=O)O [L-(−)-Epinephrine-(+)-Bitartrate],–,–,–,–,"% Inhibition, CML Average (PBMCs from CML patients; [1]): 68.4%; % Inhibition, CLL Average (PBMCs from CLL patients; [2]): 45.4%; % Inhibition, AML Average (PBMCs from AML patients; [4]): −2.8%; % Inhibition, ALL Average (PBMCs from ALL patients; [3]): 80.5%"
CS(=O)(=O)CCNCc1ccc(-c2ccc3ncnc(Nc4ccc(OCc5cccc(F)c5)c(Cl)c4)c3c2)o1 [Lapatinib Ditosylate],76.6,6.9,35.1,-76.1,–
CC(C)(C)NC[C@H](O)COc1cccc2c1CCCC2=O [Levobunolol HCl],-32.1,49.6,-8,1.8,–
CN(C)C(=O)C(CCN1CCC(O)(c2ccc(Cl)cc2)CC1)(c1ccccc1)c1ccccc1 [Loperamide HCl],69.3,16.3,54.9,18.5,–
OC(c1cc(C(F)(F)F)nc2c(C(F)(F)F)cccc12)C1CCCCN1 (stereo not drawn) [Mefloquine HCl],90.4,50.5,87.7,72.7,–
N[C@@H](Cc1ccc(N(CCCl)CCCl)cc1)C(=O)O [Melphalan],32.5,69.6,92.9,42.1,–
C[C@](N)(Cc1ccc(O)c(O)c1)C(=O)O [Methyldopa],–,–,–,–,"Effect on CLL PBMC compared to control cells (PBMC from CLL patients; dose-response, FIG. 3): show an effect on CLL PBMC better than control cell"
Cc1ncc([N+](=O)[O-])n1CCO [Metronidazole],-17.3,31,-23.9,-25.2,–
Clc1ccc(COC(Cn2ccnc2)c2ccc(Cl)cc2Cl)c(Cl)c1 (stereo not drawn) [Miconazole],69.9,-3.3,-35.1,38.1,–
O=C1c2c(O)ccc(O)c2C(=O)c2c(NCCNCCO)ccc(NCCNCCO)c21 [Mitoxantrone HCl],72.6,71.1,73.7,68.8,–
COC(=O)C1=C(C)NC(C)=C(C(=O)OC)C1c1ccccc1[N+](=O)[O-] [Nifedipine],4.2,-10.8,74.3,7.9,–
Cc1cc2c(s1)Nc1ccccc1N=C2N1CCN(C)CC1 [Olanzapine],79.5,-26.5,71.8,1.8,"Induction of cell death in PBMC from CLL patients compared to control cells (PBMC from CLL patients; fresh primary cells, FIG. 4A-4D): shown to induce cell death in PBMC from CLL patients compared to control cells; Effect on PBMC when primary cells are tested after freezing (PBMC from CLL patients; primary cells tested after freezing): the effect is not observed"
O=c1[nH]c2ccccc2n1C1CCN(CCCC(c2ccc(F)cc2)c2ccc(F)cc2)CC1 [Pimozide],69,39.5,58.8,42.3,–
COc1cc(NC(C)CCCN)c2ncccc2c1 (stereo not drawn) [Primaquine Phosphate],40.9,16.9,54.9,19.8,–
CO[C@H]1/C=C/O[C@@]2(C)Oc3c(C)c(O)c4c(O)c(c5c(nc6cc(C)ccn65)c4c3C2=O)NC(=O)/C(C)=C\C=C\[C@H](C)[C@H](O)[C@@H](C)[C@@H](O)[C@@H](C)[C@H](OC(C)=O)[C@@H]1C [Rifaximin],42.3,-60.2,-45.4,-42.8,–
CCN(CC)CCNC(=O)c1c(C)[nH]c(/C=C2\C(=O)Nc3ccc(F)cc32)c1C [Sunitinib Malate],65.2,40.5,54.2,56.5,–
CO[C@H]1C[C@@H]2CC[C@@H](C)[C@@](O)(O2)C(=O)C(=O)N2CCCC[C@H]2C(=O)O[C@H]([C@H](C)C[C@@H]2CC[C@@H](OC(=O)C(C)(CO)CO)[C@H](OC)C2)CC(=O)[C@H](C)/C=C(\C)[C@@H](O)[C@@H](OC)C(=O)[C@H](C)C[C@H](C)/C=C/C=C/C=C/1C [Temsirolimus],7,26.6,-6.4,1.6,–
CSc1ccc2c(c1)N(CCC1CCCCN1C)c1ccccc1S2 (stereo not drawn) [Thioridazine HCl],70.3,-40.9,23.1,27,–
Ivermectin,–,–,–,–,"% Inhibition, CML Average (PBMCs from CML patients; [1]): 79.3%; % Inhibition, CLL Average (PBMCs from CLL patients; [2]): 66.0%; % Inhibition, AML Average (PBMCs from AML patients; [4]): 60.2%; % Inhibition, ALL Average (PBMCs from ALL patients; [3]): 70.4%"
